In patent US20200317642A1, “AMINE-SUBSTITUTED HETEROCYCLIC COMPOUNDS AS EHMT2 INHIBITORS AND DERIVATIVES THEREOF” (Epizyme, Inc., priority 2017, published 2020):

Experiments:
human EHMT2 913-1193 = target: T1, human EHMT2 913-1193 (Homo sapiens, UniProt Q96KQ7); experiment: EHMT2 enzyme assay on histone peptide substrate; format: biochemical; conditions: Table 3A; histone H3 1-15 peptide, balanced conditions; read-out: EHMT2 (IC50 μM)
T1 construct: recombinant purified human EHMT2 913-1193, Viva; purchased Viva
T1 sequence (Q96KQ7 913-1193): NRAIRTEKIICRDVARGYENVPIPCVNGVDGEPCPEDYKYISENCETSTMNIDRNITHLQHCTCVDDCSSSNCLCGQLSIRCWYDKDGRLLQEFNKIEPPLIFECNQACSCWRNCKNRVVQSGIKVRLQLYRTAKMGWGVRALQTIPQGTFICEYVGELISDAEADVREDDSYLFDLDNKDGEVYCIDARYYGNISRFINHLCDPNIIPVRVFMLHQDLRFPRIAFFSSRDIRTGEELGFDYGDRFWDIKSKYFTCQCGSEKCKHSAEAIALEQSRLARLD
Excerpt: Recombinant purified human EHMT2 913-1193 ([…]) synthesized by Viva was used for all experiments. Biotinylated histone peptides were synthesized by Biopeptide and HPLC-purified to >95% purity. Streptavidin Flashplates and seals were purchased from PerkinElmer and 384 Well V-bottom Polypropylene Plates were from Greiner. ^3H-labeled S-adenosylmethionine (^3H-SAM) was obtained from American Radiolabeled Chemicals with a specific activity of 80 Ci/mmol. Unlabeled SAM and S-adenosylhomocysteine (SAH) were obtained from American Radiolabeled Chemicals and Sigma-Aldrich respectively. Flashplates were washed in a Biotek ELx-405 with 0.1% Tween. 384-well Flashplates and 96-well filter binding plates were read on a TopCount microplate reader (PerkinElmer). Compound serial dilutions were performed on a Freedom EVO (Tecan) and spotted into assay plates using a Thermo Scientific Matrix PlateMate (Thermo Scientific). Reagent cocktails were added by Multidrop Combi (Thermo Scientific).
10-point curves of test compounds were made on a Freedom EVO (Tecan) using serial 3-fold dilutions in DMSO, beginning at 2.5 mM (final top concentration of compound was […] and the DMSO was 2%). A 1 μL aliquot of the inhibitor dilution series was spotted in a polypropylene 384-well V-bottom plate (Greiner) using a Thermo Scientific Matrix PlateMate (Thermo Scientific). The 100% inhibition control consisted of 1 mM final concentration of the product inhibitor S-adenosylhomocysteine (SAH, Sigma-Aldrich). Compounds were incubated for 30 minutes with 40 μL per well of 0.031 nM EHMT2 (recombinant purified human EHMT2 913-1193, Viva) in 1× assay buffer (20 mM Bicine [pH 7.5], 0.002% Tween 20, 0.005% Bovine Skin Gelatin and 1 mM TCEP). 10 μL per well of substrate mix comprising assay buffer, ^3H-SAM (^3H-labeled S-adenosylmethionine, American Radiolabeled Chemicals, specific activity of 80 Ci/mmol), unlabeled SAM (American Radiolabeled Chemicals), and peptide representing histone H3 residues 1-15 containing C-terminal biotin (appended to a C-terminal amide-capped lysine, synthesized by Biopeptide and HPLC-purified to greater than 95% purity) were added to initiate the reaction (both substrates were present in the final reaction mixture at their respective Km values, an assay format referred to as “balanced conditions”). Reactions were incubated for 60 minutes at room temperature and quenched with 10 μL per well of 400 μM unlabeled SAM, then transferred to a 384-well streptavidin Flashplate (PerkinElmer) and washed in a Biotek ELx-405 well washer with 0.1% Tween after 60 minutes. 384-well Flashplates were read on a TopCount microplate reader (PerkinElmer).

[1] = tested on: H3K9me2 in MDA-MB-231 cells; experiment: MDA-MB-231 H3K9me2 in-cell western assay (EHMT2 ICW); format: cell-based; conditions: Homo sapiens, Table 3A, read-out: ICW (IC50 μM)
Excerpt: MDA-MB-231 cell line was purchased from ATCC (Manassas, Va., USA). RPMI/Glutamax medium, Penicillin-Streptomycin, Heat Inactivated Fetal Bovine Serum, and D-PBS were purchased from Life Technologies (Grand Island, N.Y., USA). Odyssey blocking buffer, 800 CW goat anti-mouse IgG (H+L) antibody, and Licor Odyssey Infrared Scanner were purchased from Licor Biosciences, Lincoln, Nebr., USA. H3K9me2 mouse monoclonal antibody (Cat #1220) was purchased from Abcam (Cambridge, Mass., USA). 16% Paraformaldehyde was purchased from Electron Microscopy Sciences, Hatfield, Pa., USA). MDA-MB-231 cells were maintained in complete growth medium (RPMI supplemented with 10% v/v heat inactivated fetal bovine serum) and cultured at 37° C. under 5% C02. UNC0638 was purchased from Sigma-Aldrich (St. Louis, Mo., USA).
General Procedure for MDA-MB-231 HEK9me2 in-Cell Western Assay.
Compound (100 nL) was added directly to 384-well cell plate. MDA-MB-231 cells (ATCC) were seeded in assay medium (RPMI/Glutamax supplemented with 10% v/v heat inactivated fetal bovine serum and 1% Penicillin/Streptomycin, Life Technologies) at a concentration of 3,000 cells per well to a Poly-D-Lysine coated 384-well cell culture plate with 50 μL per well. Plates were incubated at 37° C., 5% CO2 for 48 hours (BD Biosciences 356697). […] After the incubation, 50 μL per well of 8% paraformaldehyde (Electron Microscopy Sciences) in PBS was added to the plates and incubated at room temperature for 20 minutes. Plates were transferred to a Biotek 406 plate washer and washed 2 times with 100 μL per well of wash buffer (1×PBS containing 0.3% Triton X-100 (v/v)). Next, 60 μL per well of Odyssey blocking buffer (Licor Biosciences) was added to each plate and incubated for 1 hour at room temperature. Blocking buffer was removed and 20 μL of monoclonal primary antibody α-H3K9me2 (Abcam) diluted 1:800 in Odyssey buffer with 0.1% Tween 20 (v/v) were added and plates were incubated overnight (16 hours) at 4° C. Plates were washed 5 times with 100 μL per well of wash buffer. Next 20 μL per well of secondary antibody was added (1:500 800 CW donkey anti-mouse IgG (H+L) antibody (Licor Biosciences), 1:1000 DRAQ5 (Cell Signaling Technology) in Odyssey buffer with 0.1% Tween 20 (v/v)) and incubated for 1 hour at room temperature. The plates were washed 5 times with 100 μL per well wash buffer then 2 times with 100 μL per well of water. Plates were allowed to dry at room temperature then imaged on a Licor Odyssey Infrared Scanner (Licor Biosciences) which measured integrated intensity at 700 nm and 800 nm wavelengths. Both 700 and 800 channels were scanned.
First, the ratio for each well was determined by:
Each plate included fourteen control wells of DMSO only treatment (Minimum Inhibition) as well as fourteen control wells (background wells) for maximum inhibition treated with control compound UNC0638 (Background wells).
The average of the ratio values for each well was calculated and used to determine the percent inhibition for each test well in the plate. Control compound was serially diluted three-fold in DMSO for a total of 10 test concentrations beginning at 1 μM. Percent inhibition was calculated as: […]
IC50 curves were generated using triplicate wells per concentration of compound. The IC50 is the concentration of compound at which measured methylation is inhibited by 50% as interpolated from the dose response curves. IC50 values were calculated using a non-linear regression (variable slope-four parameter fit model) with by the following formula:
where Top is fixed at 100% and Bottom is fixed to 0%, [I]=concentration of inhibitor, IC50=half maximal inhibitory concentration and n=Hill Slope.

Row | Structure (SMILES) | IC50 (human EHMT2 913-1193) [µM] | IC50 [1] [µM]
1 | CNC1=Nc2cc(-c3cc4ccncc4[nH]3)c(Cl)cc2C12CCC2 [Compound A44] | 0.01 to 0.1 | 0.1 to 1
2 | CNC1=Nc2cc(-c3[nH]c4cnccc4c3C)c(Cl)cc2C12CCC2 [Compound A45] | < 0.01 | 0.01 to 0.1
3 | CNCc1cn(-c2cc3c(cc2OC)C2(CCC2)C(NC)=N3)cn1 [Compound A47] | 0.01 to 0.1 | 0.1 to 1
4 | CNCc1cn(-c2cc3c(cc2Cl)C2(CCC2)C(NC)=N3)cn1 [Compound A48] | > 1 | > 1
5 | CNC1=Nc2cc(-n3cc4c(n3)CCCNC4)c(Cl)cc2C12CCC2 [Compound A51] | < 0.01 | < 0.01
6 | CNC1=Nc2cc(-n3cc([C@H]4CCCN4C)nn3)c(Cl)cc2C12CCC2 [Compound A52R] | 0.01 to 0.1 | 0.01 to 0.1
7 | CNC1=Nc2cc(-n3cc([C@H]4CCCN4C)nn3)c(OC)cc2C12CCC2 [Compound A59R] | < 0.01 | 0.1 to 1
8 | CNc1cc(C)nc(Nc2ccc(OC)c(-n3ncc4c3CCCNC4)c2F)n1 [Compound A62] | < 0.01 | 0.01 to 0.1
9 | CNc1cc(C)nc(Nc2ccc(OC)c(-n3ncc4c3CCCNC4=O)c2F)n1 [Compound A63] | > 1 | 
10 | CNc1cc(C)nc(Nc2ccc(OC)c(-n3cc4c(n3)CCCN(C)C4)c2F)n1 [Compound A66] | < 0.01 | 
11 | CNC1=Nc2cc(-n3cc4c(n3)CCCN(C)C4)c(Cl)cc2C12CCC2 [Compound A68] | < 0.01 | < 0.01
12 | CCN1CCCc2nn(-c3cc4c(cc3Cl)C3(CCC3)C(NC)=N4)cc2C1 [Compound A69] | < 0.01 | 0.01 to 0.1
13 | CNC1=Nc2cc(-n3cc4c(n3)CCCNC4)c(OC)cc2C12CCC2 [Compound A70] | < 0.01 | < 0.01
